Test results published in US20210227854A1, “USE OF D-RIBOSE TO ENHANCE ADAPTATION TO PHYSICAL STRESS” (Bioenergy Life Science, Inc., priority 2014, published 2021).

Experiments:
Type in all cases: in vivo, human
[1] = Tolerability of supplementation in the exercise study; settings: 10 g/day; 26 subjects
Procedure: A high-intensity exercise protocol was designed as a double-blind, crossover study to assess the influence of D-Ribose adaptation to physical stress. Specifically, D-Ribose and a control (Dextrose) were administered on separate subjects at a dosage of ten grams per day (10 g/day). A variety of physiological parameters were measured in the subjects administered D-Ribose (DR) supplementation (i.e., the DR subjects) versus the subjects administered Dextrose (DEX) supplementation (i.e., the DEX subjects).
The subjects consisted of twenty-six (26) healthy individual (10 females, 16 males). Each subject was randomly categorized as a DR subject or a DEX subject for the administration of supplementation. Furthermore, each subject was required to maintain his or her normal diet during the study, as well as performing his or her normal daily activities without performing any additional separate exercise sessions not part of the study protocol. […]

[2] = Blood glucose levels during exercise; settings: mean (SD)
Procedure: A high-intensity exercise protocol was designed as a double-blind, crossover study to assess the influence of D-Ribose adaptation to physical stress. Specifically, D-Ribose and a control (Dextrose) were administered on separate subjects at a dosage of ten grams per day (10 g/day). A variety of physiological parameters were measured in the subjects administered D-Ribose (DR) supplementation (i.e., the DR subjects) versus the subjects administered Dextrose (DEX) supplementation (i.e., the DEX subjects). To test D-ribose for adaptation, the twenty-six (26) adult subjects were further divided into two subgroups based on their fitness level (i.e., peak oxygen uptake (VO2 max) results. The first subgroup comprised subjects with higher VO2 max results (i.e., the “Fit Subgroup”) and the second subgroup comprised subjects with lower VO2 max results (i.e., the “Unfit Subgroup”). The Unfit Subgroup consisted of six (6) females and seven (7) males. The average age of the Unfit Subgroup was 27.7±3.4 years and the average peak VO2 of the Unfit Subgroup was 39.9±4.1 mL/kg/min. The Fit Subgroup consisted of four (4) females and nine (9) males. The average age of the Fit Subgroup was 27.6±3.5 year and the average peak VO2 of the Fit Subgroup was 52.2±4.3 mL/kg/min. Physiologic parameters were measured and hydration was provided to the subjects during the exercise session. The same protocol for testing and hydration protocol was followed for both DR subjects and DEX subjects. Blood samples were drawn from each subject via a venipuncture technique at the following time periods: • Ten (10) minutes before commencement of exercise; • Twenty (20) minutes after the commencement of and during exercise; • Forty (40) minutes after the commencement of and during exercise; • Sixty (60) minutes after the commencement of and during exercise; and • Twenty-four (24) hours after the conclusion of exercise (twenty-five (25) hours after the commencement of exercise). Blood glucose was measured at all of the above time points except at twenty-four (24) hours post-exercise. Creatine kinase and BUN levels were measured at the pre-exercise (−10 min.) point during the three (3) days of exercise and twenty-four (24) hours post-exercise following the third (last) exercise session. Heart rate was recorded using a Polar HR monitor. Blood glucose levels were measured using a Bayer glucose monitor. Blood lactate levels were measured by an AccuSport Lactate Analyzer. Creatine kinase and BUN were measured utilizing an Abaxis Piccolo analyzer. Power data from the time trial performance test was assessed with the Sports Medicine Industries (SMI) software package.

[3] = Rating of perceived exertion (RPE) during exercise; settings: for RPE (Borg 6-20 scale): 10 g/day, mean ± SD
Procedure: A high-intensity exercise protocol was designed as a double-blind, crossover study to assess the influence of D-Ribose adaptation to physical stress. Specifically, D-Ribose and a control (Dextrose) were administered on separate subjects at a dosage of ten grams per day (10 g/day). A variety of physiological parameters were measured in the subjects administered D-Ribose (DR) supplementation (i.e., the DR subjects) versus the subjects administered Dextrose (DEX) supplementation (i.e., the DEX subjects). To test D-ribose for adaptation, the twenty-six (26) adult subjects were further divided into two subgroups based on their fitness level (i.e., peak oxygen uptake (VO2 max) results. The first subgroup comprised subjects with higher VO2 max results (i.e., the “Fit Subgroup”) and the second subgroup comprised subjects with lower VO2 max results (i.e., the “Unfit Subgroup”). The Unfit Subgroup consisted of six (6) females and seven (7) males. The average age of the Unfit Subgroup was 27.7±3.4 years and the average peak VO2 of the Unfit Subgroup was 39.9±4.1 mL/kg/min. The Fit Subgroup consisted of four (4) females and nine (9) males. The average age of the Fit Subgroup was 27.6±3.5 year and the average peak VO2 of the Fit Subgroup was 52.2±4.3 mL/kg/min. The protocol of the double-blind crossover study involved an initial baseline assessment, followed by two separate day assessments after consuming either a DR or DEX supplement. Each exercise session entailed measurements of creatine kinase (CK), blood urea nitrogen (BUN), glucose, heart rate (HR), rate of perceived exertion (RPE), and power output (PO) measurements. […] The Likert scale (0-10 points) was used to subjectively assess quadriceps muscle soreness, overall fatigue, appetite, perceived performance, and sleep quality. These scales were completed prior to and following each exercise session.

Structure (SMILES)	Tolerability of supplement [1]	Blood glucose level during exercise ([2]; Fit Subgroup, 19.5)	Blood glucose level during exercise ([2]; Fit Subgroup, 39.5)	Blood glucose level during exercise ([2]; Fit Subgroup, 59.5)	Blood glucose level during exercise ([2]; Unfit Subgroup, 19.5)	Blood glucose level during exercise ([2]; Unfit Subgroup, 39.5)	Blood glucose level during exercise ([2]; Unfit Subgroup, 59.5)	RPE ([3]; Fit Subgroup)	RPE (Borg 6-20 scale) ([3]; Fit Subgroup)	RPE (Borg 6-20 scale) ([3]; Unfit Subgroup)	RPE ([3]; Unfit Subgroup, p=0.003)	Average rate of perceived exertion, DEX subjects versus DR subjects (FIG. 1) ([3]; all measured points of the exercise sessions)
O=C[C@H](O)[C@@H](O)[C@H](O)[C@H](O)CO [DEX, Dextrose, reference compound]	without any subjective complaints or issues	4.0 (0.6) mM/L	4.1 (0.7) mM/L	4.0 (0.6) mM/L	4.0 (0.5) mM/L	4.0 (0.5) mM/L	3.9 (0.6) mM/L	14±2	13.9 ± 1.6	13.5 ± 1.5	14±2	greater
O=C[C@H](O)[C@H](O)[C@H](O)CO [DR, D-Ribose]	without any subjective complaints or issues	3.8 (0.5) mM/L	4.0 (0.5) mM/L	3.9 (0.5) mM/L	4.0 (0.6) mM/L	4.0 (0.6) mM/L	4.1 (0.7) mM/L	14±2	13.6 ± 1.8	13.1 ± 1.6	13±2	–
